Common to all, as to test: growth of human tumour cells (NCI), 48 h
For assay [1], the system named is SNB-75 CNS.
For assay [2], the system named is NCI-H522 lung.
The subject of assay [3] is KM20L2 colon.
For assay [4], the system named is OVCAR-5 ovarian.
The subject of assay [5] is LXFL 529 NSCLC.
For assay [6], the system named is DMS 114 small cell lung.
Assay [7] deals with XF 498 CNS.
The test system of assay [8] is M19-MEL melanoma.
Assay [9] relates to TK-10 renal.
The subject of assay [10] is DMS 273 small cell lung.
Assay [11] concerns CCRF-CEM leukemia.
Assay [12] relates to DLD-1 colon.
Assay [13] relates to SK-MEL-2 melanoma.
For assay [14], the system named is RXF 393 renal.
Assay [15] deals with SNB-78 CNS.
Assay [16] concerns MCF7 breast.
Assay [17] deals with MDA-MB-435.
Assay [18] concerns DU-145 prostate.

Molecules are shown by their SMILES.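 In this assay, cells in 96-well plates receive the compound at five concentrations for 48 hours. Endpoints are linearly interpolated between the surrounding concentrations. Definition used: TGI = concentration required for complete inhibition of growth.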

This is an account of results in PubChem BioAssay (NCI).

For `Cc1ccc(N2C(=O)CS/C2=C(\C#N)c2nc3ccccc3[nH]2)cc1`, the TGI in assay [1], in [2], in assay [3], in assay [4], in [5] and in assay [6] was greater than 100 µM in each case. Further, the TGI in assay [7], in [8], in assay [9], in assay [10], in assay [11] and in assay [12] was greater than 100 µM each time. The TGI in assay [13] was greater than 100 µM.

Regarding `CCC12CCCN(Cc3ccccc3)C1c1c(n(C)c3ccccc13)C(C(=O)OC)C2` (stereo not drawn), the TGI was 127 µM in assay [2]; greater than 239 µM in assay [14]; greater than 239 µM in assay [3]; greater than 239 µM in [4]; greater than 239 µM in assay [5]; greater than 239 µM in assay [6]. The TGI in assay [7] is 118 µM; in assay [8], greater than 239 µM; in assay [9], greater than 239 µM; in [10], greater than 239 µM; in assay [11] it was greater than 239 µM; in [12], greater than 239 µM. The same compound showed a TGI in [13] greater than 239 µM.

Regarding `CC(=O)NNc1nc(C)c(C(=O)/C=C/c2ccccc2Cl)s1`, the TGI in assay [1], in assay [2], in assay [14], in assay [3], in assay [4] and in [6] was greater than 100 µM in each case. For the same compound, the TGI in assay [8], in assay [15], in assay [9], in [10], in assay [11] and in assay [12] was greater than 100 µM each time. For the same compound, the TGI in assay [13] is greater than 100 µM.

`CCOC(=O)/C=C/n1c2ccccc2c(=O)c2ccccc21`: the TGI in assay [2], in assay [14], in assay [3], in assay [5], in assay [6] and in assay [7] was greater than 100 µM throughout. Further, the TGI in [8], in assay [9], in assay [10], in assay [11], in assay [12] and in assay [13] was greater than 100 µM in each case.

Consider `Nc1nc(SCc2ccc([N+](=O)[O-])cc2)nc2c1ncn2C1OC(CO)C(O)C1O` (stereo not drawn), for which the TGI in [2], in assay [14], in assay [3], in [4], in assay [5] and in [6] was greater than 100 µM throughout. Moreover, the TGI in assay [7], in assay [8], in assay [15], in assay [9], in [10] and in assay [11] was greater than 100 µM each time. Further, in [12], the TGI was greater than 100 µM.

As to `CC(=O)O[C@H]1[C@@H]2OC(=O)[C@@](O)(CC3CCCO3)[C@@H]2CC(=O)[C@](C)(O)CC/C=C(\C)CCC[C@@H]1C` (stereo partly drawn), the TGI was greater than 100 µM in assay [1]; 72.4 µM in assay [2]; 35.9 µM in assay [14]; greater than 100 µM in assay [16]; greater than 100 µM in [4]; greater than 100 µM in assay [9]. The TGI in assay [11] is 68.4 µM; in assay [13], greater than 100 µM; in [17], greater than 100 µM; in [18] it was greater than 100 µM.

On to `Cc1cccc(CP(Cc2cccc(C)c2)CC2(Cp3c4ccccc4c4ccccc43)COC2)c1`, for which the TGI in assay [1] is greater than 100 µM; in assay [2], greater than 85.8 µM; in assay [14], greater than 100 µM; in [16], greater than 100 µM; in assay [4] it was greater than 100 µM; in assay [9], greater than 71.8 µM. The TGI in [11] is greater than 100 µM; in assay [13] it was greater than 94.7 µM; in [17], greater than 100 µM; in assay [18] it was greater than 100 µM.

Turning to `CN1c2ccccc2N(C(=O)c2ccc(Cl)cc2)C(CC(=O)O)c2cccn21` (stereo not drawn), the TGI in assay [1], in [2], in assay [14], in assay [3], in assay [4] and in assay [5] was greater than 100 µM each time. Further, the TGI in [6], in assay [7], in assay [8], in assay [15], in assay [9] and in [10] was greater than 100 µM in each case. Moreover, the TGI in assay [11], in assay [12] and in [13] was greater than 100 µM throughout.

Consider `CC(C)CC(NC(=O)OC(C)(C)C)C(=O)Nc1ccc(Nc2nc(F)nc(-c3c4ccccc4c4n3CCS4)n2)cc1` (stereo not drawn), for which the TGI is 38.2 µM in [1]; 29.2 µM in assay [2]; 62.1 µM in assay [14]; 32.3 µM in assay [3]; 44.7 µM in assay [4]; 35.2 µM in assay [5]. Moreover, the TGI in assay [6] was found to be 37.5 µM; in assay [7], 42.3 µM; in assay [15], 44.3 µM; in assay [9], 57.5 µM; in assay [10], 30.6 µM; in assay [11], 16.9 µM. Also, the TGI in assay [12] came out at 36.8 µM; in assay [13] it was 33.6 µM.

In the case of `Brc1cc(CCOC2CCCCO2)c(-c2sccc2CCOC2CCCCO2)s1` (stereo not drawn), the TGI is greater than 100 µM in assay [1]; greater than 69.6 µM in assay [2]; 3 µM in assay [14]; greater than 80 µM in assay [16]; greater than 100 µM in assay [4]; greater than 100 µM in assay [9]. Besides, the TGI in assay [11] is greater than 82.5 µM; in [13], 98.4 µM; in assay [17], greater than 100 µM; in assay [18] it was greater than 100 µM.
